Assay results as given in US6753021B2, “Biologically active chloroform fraction of an extract obtained from a mangrove plant Salvadora persica L” (Council of Scientific & Industrial Research, priority 2001, dated 2004).

Tested on: isolated guinea pig ileum
Test: Anti-cholinergic activity: acetylcholine-induced contraction of isolated guinea pig ileum
Settings: in words; isolated compounds were tested only on isolated guinea pig ileum
Description: Female, virgin guinea pigs weighing around 300 to 350 g, housed under uniform husbandry conditions (temperature 25±1° C.) were used. The animals were starved 24 hours prior to the experiment, only water was provided ad libitum.
The isolated guinea pig ileum was used to study the anti-spasmodic, anti-cholinergic, and anti-arrhythmic activity of the active fractions.
In particular, the five compounds isolated were tested only on isolated guinea pig ileum. The longitudinal ileal muscle from a freshly killed guinea pig was suspended in an organ bath of 10 ml capacity, filled with Tyrode solution, and aerated with air.
All of these compounds were dissolved in 1000 ml of distilled water.
Two to four doses of acetylcholine were added to the bath to obtain uniform amplitude with a contact period of 30 seconds, the contractions of which were recorded on a polygraph. The five compounds isolated were tested in doses of 196 and 392×10^−6 moles per ml of bath concentration.

SMILES	biological activity shown by the extract, in purified compounds
C=C(C)[C@@H]1CC[C@]2(CO)CC[C@]3(C)[C@H](CC[C@@H]4[C@@]5(C)CC[C@H](O)C(C)(C)[C@@H]5CC[C@]43C)[C@@H]12 [betulin]	maintained
CCCCCCCCCCCCCCCC(=O)OC [methyl palmitate]	maintained
